Our source for the IC50 values is patent US10266542B2, “EZH2 inhibitors” (priority 2017, dated 2019).

Like-named read-outs stand apart in the source and are kept apart here.

The target in one assay is purified EZH2 enzyme (Homo sapiens (Human), UniProt Q15910). The assay is described as follows: biochemical. As to conditions: purified EZH2, 4 μM SAM, histone 3.3 substrate, 30° C. three hours, fluorescence polarization readout.
In assay [1] the test system is EZH2-mediated histone H3 Lys27 trimethylation in Pfeiffer cells (mutant EZH2 A677G). The assay is described as follows: Tri-Methyl Histone H3 (Lys 27) Sandwich ELISA in Pfeiffer cells. Type of assay: cell-based, human.
Method: Briefly, Pfeiffer cells were cultured in RPMI medium supplemented with 10% fetal bovine serum and 1% penicillin and 1% streptomycin in 96 well culture plates at 37° C. to a density of 8000 cells/90 μl/well and the cells were harvested. […] The plates were incubated at 37° C. for 96 hours.
After incubation, the cells were pelleted by centrifugation in a pre-cooled 4° C. rotor at 1,100 rpm for 10 min and the supernatant was removed by aspiration. The cell pellet was resuspended in 55 μl of Lysis Buffer (0.4M HCl) and incubated on ice with periodic shaking for 30 minutes. The lysed cells were subjected to centrifugation at 4,200 rpm for 10 min at 4° C. and the supernatant containing acid-soluble proteins was collected and the remainder discarded.
A 65 μl aliquot of each cell lysate was added to a well of a microwell strip, the microwells were sealed using tape and incubated either at 37° C. for two hours or at 4° C. overnight. After incubation, the tape was removed at the microwells were washed four times using 200 μl of 1× Wash Buffer. To each washed microwell, a 100 μl aliquot of an anti-trimethyl histone H3 Lys27 Detection Antibody solution was added and the microwells were incubated at 37° C. for one hour. The Detection Antibody solution was removed by aspiration and the wells were washed four times each using 200 μl of 1× Wash Buffer.
A 100 μl aliquot of an HRP-linked secondary antibody was added to each well, the wells were sealed with tape and incubated at 37° C. for 30 min. The HRP-linked secondary antibody solution was removed by aspiration and the wells were washed four times using 200 μl of 1× Wash Buffer. A 100 μl aliquot of a TMB substrate was added to each well, the wells were sealed with tape and incubated at 37° C. for 10 min or 25° C. for 30 min. The reaction was stopped by the addition of 100 μl aliquot of a STOP solution and the plate was shaken briefly. The degree of histone H3 trimethylation was determined using a spectrophotometric readout by measuring the absorbance at 450 nm and then calculating the amount of trimethylated histone H3.
The mark [2] stands for this setting: Homo sapiens, Pfeiffer cells (DLBCL, EZH2 A677G), 96 hours incubation, H3K27me3 ELISA, absorbance at 450 nm, read-out: IC50.
Where [3] appears, read: Pfeiffer cells (DLBCL, EZH2 A677G), 96 hours incubation, H3K27me3 ELISA, absorbance at 450 nm, read-out: IC50.

With `Cc1[nH]c(=O)c(CN2CCc3c(Cl)cc(C(C)C4COC4)c(Cl)c3C2=O)c2cc[nH]c12` (centres unmarked) [Example 19, 5,8-dichloro-2-[(7-methyl-5-oxo-1,6-dihydropyrrolo[2,3-c]pyridin-4-yl)methyl]-7-[1-(oxetan-3-yl)ethyl]-3,4-dihydroisoquinolin-1-one], the IC50 turned out to be 2 nM at purified EZH2 enzyme and 78 nM in assay [1] (setting [2]).

In the case of `COC(c1cc(Cl)c2c(c1Cl)C(=O)N(Cc1c(=O)[nH]c(C)c3ccoc13)CC2)C1CN(C)C1` (centres unmarked) [Example 10, 7-((5,8-dichloro-7-(methoxy(1-methylazetidin-3-yl)methyl)-1-oxo-3,4-dihydroisoquinolin-2(1H)-yl)methyl)-4-methylfuro[3,2-c]pyridin-6(5H)-one], the half-inhibitory concentration (IC50) in assay [1] (setting [2]) is 336 nM. As to “5,8-dichloro-7-(3,5-dimethyltriazol-4-yl)-2-[(7-methyl-5-oxo-1,6-dihydropyrrolo[2,3-c]pyridin-4-yl)methyl]-3,4-dihydroisoquinolin-1-one [Example 15]”, the IC50 worked out at 2 nM on purified EZH2 enzyme and 6 nM in assay [1] (setting [3]). As for `Cc1[nH]c(=O)c(CN2CCc3c(Cl)cc(OC(C)C)c(Cl)c3C2=O)c2occc12` [Example 1, 7-((5,8-dichloro-7-isopropoxy-1-oxo-3,4-dihydroisoquinolin-2(1H)-yl)methyl)-4-methylfuro[3,2-c]pyridin-6(5H)-one], the 50% inhibitory concentration (IC50) against purified EZH2 enzyme is 6 nM; in assay [1] (Homo sapiens, Pfeiffer, 96 h) it was 759 nM. Regarding `Cc1cc2c(C)[nH]c(=O)c(CN3CCc4c(Cl)cc(OC(C)C)c(Cl)c4C3=O)c2o1` [Example 8, 7-((5,8-dichloro-7-isopropoxy-1-oxo-3,4-dihydroisoquinolin-2(1H)-yl)methyl)-2,4-dimethylfuro[3,2-c]pyridin-6(5H)-one], half-maximal inhibition at purified EZH2 enzyme (IC50) required 95 nM. As to `Cc1noc(C)c1-c1cc(Cl)c2c(c1Cl)C(=O)N(Cc1c(=O)[nH]c(C)c3ccoc13)CC2` [Example 16, 7-((5,8-dichloro-7-(3,5-dimethylisoxazol-4-yl)-1-oxo-3,4-dihydroisoquinolin-2(1H)-yl)methyl)-4-methylfuro[3,2-c]pyridin-6(5H)-one], the half-inhibitory concentration (IC50) against purified EZH2 enzyme was determined as 3 nM; in assay [1] (setting [2]), 7 nM. In the case of `Cc1noc(C)c1-c1cc(Cl)c2c(c1Cl)C(=O)N(Cc1c(=O)[nH]c(C)c3[nH]ccc13)CC2` [Example 13, 5,8-dichloro-7-(3,5-dimethylisoxazol-4-yl)-2-((7-methyl-5-oxo-5,6-dihydro-1H-pyrrolo[2,3-c]pyridin-4-yl)methyl)-3,4-dihydroisoquinolin-1 (2H)-one], on purified EZH2 enzyme, the IC50 was determined as 2 nM.

The molecule `COC(c1cc(Cl)c2c(c1Cl)C(=O)N(Cc1c(=O)[nH]c(C)c3[nH]ccc13)CC2)C1COC1` (centres unmarked) [Example 17, 5,8-dichloro-7-[methoxy(oxetan-3-yl)methyl]-2-[(7-methyl-5-oxo-1,6-dihydropyrrolo[2,3-c]pyridin-4-yl)methyl]-3,4-dihydroisoquinolin-1-one] yielded a half-maximal inhibitory concentration (IC50) on purified EZH2 enzyme of 1 nM.

As for `COC(c1cc(Cl)c2c(c1Cl)C(=O)N(Cc1c(=O)[nH]c(C)c3sccc13)CC2)C1COC1` (centres unmarked) [Example 12, 4-((5,8-dichloro-7-(methoxy(oxetan-3-yl)methyl)-1-oxo-3,4-dihydroisoquinolin-2(1H)-yl)methyl)-7-methylthieno[2,3-c]pyridin-5(6H)-one], the results for the IC50 (on purified EZH2 enzyme; in assay [1] (setting [2])) were 37 nM and 330 nM, respectively. `COC(c1cc(Cl)c2c(c1Cl)C(=O)N(Cc1c(=O)[nH]c(C)c3ccoc13)CC2)C1COC1` (centres unmarked) [Example 9, 7-((5,8-dichloro-7-(methoxy(oxetan-3-yl)methyl)-1-oxo-3,4-dihydroisoquinolin-2(1H)-yl)methyl)-4-methylfuro[3,2-c]pyridin-6(5H)-one]: the IC50 is 4 nM at purified EZH2 enzyme and 126 nM in assay [1] (Homo sapiens, Pfeiffer, 96 h). In the case of `Cc1[nH]c(=O)c(CN2CCc3c(Cl)cc(OC(C)C)c(Cl)c3C2=O)c2cc[nH]c12` [Example 4, 5,8-dichloro-7-isopropoxy-2-((7-methyl-5-oxo-5,6-dihydro-1H-pyrrolo[2,3-c]pyridin-4-yl)methyl)-3,4-dihydroisoquinolin-1(2H)-one], the figures for the half-inhibitory concentration (IC50) (against purified EZH2 enzyme; in assay [1] (setting [2])) were 202 nM and 1040 nM, respectively. For the molecule “7-[[5-bromo-8-chloro-7-(3,5-dimethyltriazol-4-yl)-1-oxo-3,4-dihydroisoquinolin-2-yl]methyl]-4-methyl-5H-furo[3,2-c]pyridin-6-one [Example 7]”, the IC50 at purified EZH2 enzyme turned out to be 3 nM; in assay [1] (setting [3]), 30 nM. With `CCN(c1cc(Cl)c2c(c1Cl)C(=O)N(Cc1c(=O)[nH]c(C)c3ccoc13)CC2)C1CCOCC1` [Example 3, 7-((5,8-dichloro-7-(ethyl(tetrahydro-2H-pyran-4-yl)amino)-1-oxo-3,4-dihydroisoquinolin-2(1H)-yl)methyl)-4-methylfuro[3,2-c]pyridin-6(5H)-on], the half-maximal inhibitory concentration (IC50) on purified EZH2 enzyme was 5 nM; in assay [1] (setting [2]), 31 nM. The matching figures for `COC(c1cc(Cl)c2c(c1Cl)C(=O)N(Cc1c(=O)[nH]c(C)c3ccoc13)CC2)C1CS(=O)(=O)C1` (centres unmarked) [Example 18, 7-((5,8-dichloro-7-((1,1-dioxidothietan-3-yl)(methoxy)methyl)-1-oxo-3,4-dihydroisoquinolin-2(1H)-yl)methyl)-4-methylfuro[3,2-c]pyridin-6(5H)-one]: 2 nM and 78 nM. In the case of `COC(c1cc(Cl)c2c(c1Cl)C(=O)N(Cc1c(=O)[nH]c(C)c3[nH]ccc13)CC2)C1CN(C)C1` (centres unmarked) [Example 11, 5,8-dichloro-7-(methoxy(1-methylazetidin-3-yl)methyl)-2-((7-methyl-5-oxo-5,6-dihydro-1H-pyrrolo[2,3-c]pyridin-4-yl)methyl)-3,4-dihydroisoquinolin-1(2H)-one], the IC50 at purified EZH2 enzyme is 10 nM; in assay [1] (setting [2]), 12 nM.

Take `Cc1[nH]c(=O)c(CN2CCc3ccc(OC(C)C)c(Cl)c3C2=O)c2occc12` [Example 6, 7-((8-chloro-7-isopropoxy-1-oxo-3,4-dihydroisoquinolin-2(1H)-yl)methyl)-4-methylfuro[3,2-c]pyridin-6(5H)-one]: the concentration for half-maximal inhibition (IC50) on purified EZH2 enzyme was determined as 7 nM; in assay [1] (setting [2]), 44 nM.

On to `Cc1[nH]c(=O)c(CN2CCc3c(Cl)cc(N4CC5(CCOCC5)C4)c(Cl)c3C2=O)c2occc12` [Example 2, 7-((5,8-dichloro-1-oxo-7-(7-oxa-2-azaspiro[3.5]nonan-2-yl)-3,4-dihydroisoquinolin-2(1H)-yl)methyl)-4-methylfuro[3,2-c]pyridin-6(5H)-one], for which the IC50 on purified EZH2 enzyme worked out at 5 nM; in assay [1] (setting [2]), 273 nM. On to `Cc1[nH]c(=O)c(CN2CCc3c(Cl)cc(N4CC5(CCOCC5)C4)c(Cl)c3C2=O)c2cc[nH]c12` [Example 5, 5,8-dichloro-2-((7-methyl-5-oxo-5,6-dihydro-1H-pyrrolo[2,3-c]pyridin-4-yl)methyl)-7-(7-oxa-2-azaspiro[3.5]nonan-2-yl)-3,4-dihydroisoquinolin-1(2H)-one], for which the figures for the IC50 (against purified EZH2 enzyme; in assay [1] (setting [2])) were less than 0.5 nM and 17 nM, respectively.
